This experiment addresses Phospholipase A2 (Sus scrofa) (UniProt P00592+P04416). Kind of experiment: Binding affinity to Sus scrofa (pig) PLA2 isolated from pancreas by isothermal titration calorimetric analysis. It is filed as protein assay. In general terms: ITC needs no label: the signal is the heat of the interaction.

Phospholipase A2 (Sus scrofa), sequence (P00592 whole entry, looked up): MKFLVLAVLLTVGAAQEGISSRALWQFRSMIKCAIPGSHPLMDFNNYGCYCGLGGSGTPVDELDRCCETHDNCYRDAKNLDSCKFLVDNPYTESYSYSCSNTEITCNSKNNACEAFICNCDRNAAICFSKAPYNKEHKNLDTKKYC
Phospholipase A2 (Sus scrofa), sequence (P04416 whole entry, looked up): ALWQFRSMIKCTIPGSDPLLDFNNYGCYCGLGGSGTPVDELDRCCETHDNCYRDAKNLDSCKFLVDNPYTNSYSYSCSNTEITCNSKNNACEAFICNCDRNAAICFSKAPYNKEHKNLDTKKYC

The compound `CCCCCCCC/C=C\CCCCCCCCCCCC(=O)O` yielded a K of 23.3 ×10⁴ /M.
The figure for `CCCCC/C=C\C/C=C\CCCCCCCC(=O)O` is 1.15 ×10⁴ /M.

Source of the values: ChEMBL document CHEMBL3045988, “Computational and thermodynamic analyses of the phospholipase A2 inhibition by erucic acid and linoleic acid” (Med Chem Res, 2013).
